Consider ten compounds from ChEMBL document CHEMBL1201862, “PubChem BioAssay data set” (2004).

Among the test systems are EKVX; SNB-75; OVCAR-3; NCI-H226; K562; BT-549; PC-3; HL-60; SNB-19; SF-268; A549; RXF 393; CCRF-CEM; NCI-H460; MDA-MB-231; NCI-H522; RPMI-8226; 786-0; OVCAR-4; MDA-MB-435.
Assay in all cases: growth of human tumour cells (NCI), 48 h

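In this assay, cells in 96-well plates receive the compound at five concentrations for 48 hours. Endpoints are linearly interpolated between the surrounding concentrations. The concentration for 50% growth inhibition is given as GI50.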 Calls of active or inactive are those of the source. No stated cut-off is given here; in the data, active = GI50 up to about 1.1 µM and inactive = higher.

Consider `CC(C)C(C)/C=C\C(C)C1CCC2C3=CC=C4CC(O)CCC4(C)C3CCC21C` (stereo not given), for which the GI50 with EKVX is > 39.4 µM (inactive); in the assay on SNB-75 it was > 42.8 µM (inactive); in the assay on OVCAR-3, > 51.1 µM (inactive); with NCI-H226 it was > 38 µM (inactive); with K562, 26.5 µM (inactive); in the assay with BT-549, > 50.4 µM (inactive). Moreover, the GI50 is > 56.2 µM (inactive) with PC-3; 32.6 µM (inactive) with HL-60; > 74.5 µM (inactive) with SNB-19; > 42.7 µM (inactive) in the assay with SF-268; > 100 µM (inactive) in the assay on A549; > 42.5 µM (inactive) in the assay with RXF 393. Also, the GI50 was 19.8 µM (inactive) in the assay with CCRF-CEM; > 36.1 µM (inactive) in the assay with NCI-H460; > 40.6 µM (inactive) in the assay with MDA-MB-231; 38.6 µM (inactive) with NCI-H522; 29.3 µM (inactive) in the assay with RPMI-8226; > 43.2 µM (inactive) with 786-0. Besides, the GI50 is > 100 µM (inactive) in the assay with OVCAR-4 and 41.1 µM (inactive) in the assay with MDA-MB-435.

For `S=C(N/N=C(\c1ccccc1)c1ccccn1)NC1CCCCC1`, the GI50 in the assay with EKVX is 1.4 µM (inactive); with SNB-75, 65.3 µM (inactive); in the assay with OVCAR-3 it was 2.75 µM (inactive); in the assay on NCI-H226 it was 3.85 µM (inactive); in the assay with K562, 0.5 µM (active); with BT-549, 23.4 µM (inactive). Also, the GI50 in the assay on PC-3 is 1.4 µM (inactive); in the assay on HL-60 it was 0.16 µM (active); with SNB-19 it was 39.7 µM (inactive); in the assay with SF-268, 2.66 µM (inactive); in the assay with A549, 13.9 µM (inactive); in the assay on RXF 393, > 100 µM (inactive). Further, the GI50 in the assay on CCRF-CEM was 0.322 µM (active); with NCI-H460, 3.36 µM (inactive); in the assay on MDA-MB-231, 1.57 µM (inactive); in the assay on NCI-H522 it was 1.94 µM (inactive); in the assay with RPMI-8226, 2.16 µM (inactive); with 786-0 it was 18 µM (inactive). In addition, the GI50 in the assay on OVCAR-4 was 7.91 µM (inactive); in the assay with MDA-MB-435, 31.6 µM (inactive).

For the compound `CCCCCCCCCCCCCC(=O)OC(/C=C/C(C)C)C(O)C(O)C(OC)C(=O)NC1CCCCNC1=O` (stereo not given), the GI50 was 3.82 µM (inactive) in the assay with EKVX; 2.05 µM (inactive) in the assay with SNB-75; 1.81 µM (inactive) with OVCAR-3; 2.39 µM (inactive) in the assay on NCI-H226; 0.627 µM (active) in the assay with K562; > 10 µM (inactive) in the assay with BT-549. Besides, the GI50 in the assay with PC-3 was > 10 µM (inactive); in the assay on HL-60, 0.9 µM (active); in the assay with SNB-19, 0.815 µM (active); in the assay with SF-268 it was 1.52 µM (inactive); in the assay with A549, 0.257 µM (active); with RXF 393 it was 0.789 µM (active). Besides, the GI50 is 0.587 µM (active) with CCRF-CEM; 0.0906 µM (active) with NCI-H460; 2.58 µM (inactive) in the assay with MDA-MB-231; 0.836 µM (active) with NCI-H522; 2.79 µM (inactive) in the assay on RPMI-8226; 0.308 µM (active) with 786-0. The GI50 in the assay on OVCAR-4 was 1.86 µM (inactive); in the assay with MDA-MB-435, 5.97 µM (inactive).

`COC(=O)Cc1ccc(Oc2nc3ccccc3nc2-c2cccs2)cc1`: the GI50 in the assay with EKVX is > 100 µM (inactive); in the assay with SNB-75 it was 6.81 µM (inactive); with OVCAR-3, > 100 µM (inactive); in the assay with NCI-H226, 35.7 µM (inactive); with K562 it was > 100 µM (inactive); in the assay on BT-549, 57.8 µM (inactive). Moreover, the GI50 was > 100 µM (inactive) in the assay with PC-3; > 100 µM (inactive) in the assay on HL-60; 40.8 µM (inactive) in the assay on SNB-19; 36 µM (inactive) in the assay with SF-268; > 100 µM (inactive) with A549; 19.1 µM (inactive) in the assay on RXF 393. In addition, the GI50 is > 100 µM (inactive) with CCRF-CEM; > 100 µM (inactive) in the assay with NCI-H460; 27.2 µM (inactive) with MDA-MB-231; > 100 µM (inactive) in the assay with NCI-H522; > 100 µM (inactive) with RPMI-8226; 40.7 µM (inactive) with 786-0. The GI50 with OVCAR-4 and with MDA-MB-435 was > 100 µM (inactive) throughout.

For `CC1=NN(c2ccc(C)cc2)C2(C1)SCC(=O)N2c1nc2ccccc2s1` (stereo not given), the GI50 in the assay with EKVX was 21.9 µM (inactive); with SNB-75 it was 16.1 µM (inactive); with OVCAR-3, 12.2 µM (inactive); in the assay with NCI-H226 it was 11.3 µM (inactive); with K562, 24.2 µM (inactive); in the assay with BT-549, 24.2 µM (inactive). In addition, the GI50 with PC-3 was 20.5 µM (inactive); with HL-60 it was 13.1 µM (inactive); in the assay with SNB-19, 33.1 µM (inactive); in the assay on SF-268, 20.2 µM (inactive); in the assay with A549 it was 31.5 µM (inactive); with RXF 393, 13.3 µM (inactive). Further, the GI50 in the assay on CCRF-CEM was 5.22 µM (inactive); with NCI-H460, 13.4 µM (inactive); in the assay with MDA-MB-231, 15.5 µM (inactive); with NCI-H522, 16.7 µM (inactive); in the assay on RPMI-8226, 17.7 µM (inactive); in the assay on 786-0, 20.1 µM (inactive). The figures for the GI50 with OVCAR-4 and in the assay with MDA-MB-435 were 20.2 µM (inactive) and 16.4 µM (inactive), respectively.

As for `COc1cc([C@@H]2c3cc4c(cc3[C@@H](Nc3ccc(/N=C\c5ccc(C(=O)O[C@@H](C(=O)O[C@H]6C[C@@]7(O)[C@@H](OC(=O)c8ccccc8)[C@@H]8[C@]9(OC(C)=O)CO[C@@H]9C[C@H](O)[C@@]8(C)C(=O)[C@H](OC(C)=O)C(=C6C)C7(C)C)[C@@H](NC(=O)c6ccccc6)c6ccccc6)cc5)cc3)[C@H]3COC(=O)[C@H]23)OCO4)cc(OC)c1O`, the GI50 in the assay with EKVX is 16.3 µM (inactive); with SNB-75, 2.29 µM (inactive); with OVCAR-3, 15.9 µM (inactive); in the assay on NCI-H226 it was 1.57 µM (inactive); with K562 it was 2.28 µM (inactive); in the assay on BT-549 it was 9.48 µM (inactive). The GI50 with PC-3 was > 46.1 µM (inactive); in the assay with HL-60, 0.697 µM (active); with SNB-19, 2.48 µM (inactive); in the assay on SF-268, 4.34 µM (inactive); with A549 it was 0.721 µM (active); in the assay with RXF 393, 6.12 µM (inactive). Further, the GI50 is 0.544 µM (active) with CCRF-CEM; 0.113 µM (active) in the assay with NCI-H460; 20.7 µM (inactive) in the assay on MDA-MB-231; > 21.3 µM (inactive) in the assay with NCI-H522; 2.59 µM (inactive) in the assay with RPMI-8226; 2.63 µM (inactive) in the assay on 786-0. Further, the GI50 in the assay on OVCAR-4 was > 50 µM (inactive); in the assay on MDA-MB-435 it was 0.208 µM (active).

On to `O=C(N1CCN(c2ccccc2)CC1)N(C(=O)C1(c2ccc(Cl)cc2)CCCC1)S(=O)(=O)c1ccccc1`, for which the GI50 in the assay with EKVX is 21.1 µM (inactive); with SNB-75, 52.2 µM (inactive); in the assay with OVCAR-3, 31.6 µM (inactive); in the assay on NCI-H226, 33.3 µM (inactive); with K562, 32.4 µM (inactive); in the assay with BT-549, 27.8 µM (inactive). Further, the GI50 was 26.6 µM (inactive) in the assay with PC-3; 27.7 µM (inactive) with HL-60; 28.1 µM (inactive) in the assay on SNB-19; 39.9 µM (inactive) in the assay with SF-268; 36.2 µM (inactive) in the assay on A549; 42.2 µM (inactive) in the assay on RXF 393. The GI50 in the assay on CCRF-CEM was 29.7 µM (inactive); in the assay with NCI-H460, 30.5 µM (inactive); with MDA-MB-231, 26.6 µM (inactive); with NCI-H522, 15.4 µM (inactive); with RPMI-8226, 38.3 µM (inactive); with 786-0, 34.5 µM (inactive). The GI50 in the assay with OVCAR-4 is 24.1 µM (inactive); in the assay with MDA-MB-435 it was 43.8 µM (inactive).

`OC(CC(O)(C(F)(F)Cl)C(F)(F)Cl)c1ccccc1` (stereo not given): the GI50 in the assay with EKVX, in the assay with SNB-75, in the assay with OVCAR-3, in the assay with NCI-H226, in the assay with K562 and in the assay on BT-549 was > 10 µM (inactive) throughout. For the same compound, the GI50 with PC-3, in the assay on HL-60, in the assay with SNB-19, in the assay with SF-268, in the assay on A549 and in the assay on RXF 393 was > 10 µM (inactive) each time. In addition, the GI50 with CCRF-CEM was > 10 µM (inactive); in the assay with NCI-H460 it was > 10 µM (inactive); in the assay with MDA-MB-231 it was > 10 µM (inactive); in the assay with NCI-H522, > 10 µM (inactive); in the assay on RPMI-8226, > 10 µM (inactive); with 786-0 it was < 0.001 µM (active). For the same compound, the values for the GI50 with OVCAR-4 and in the assay with MDA-MB-435 were > 10 µM (inactive) and < 0.001 µM (active), respectively.

With `Cc1cc(C)nc(NS(=O)(=O)c2ccc(NNC(=O)c3cccc4c(NNc5ccc(S(=O)(=O)Nc6nc(C)cc(C)n6)cc5)c5ccccc5nc34)cc2)n1`, the GI50 with EKVX is 18.7 µM (inactive); in the assay on SNB-75 it was 17.7 µM (inactive); with OVCAR-3, 28.3 µM (inactive); in the assay with NCI-H226 it was 25.2 µM (inactive); in the assay with K562 it was 22.2 µM (inactive); in the assay on BT-549, 24.7 µM (inactive). In addition, the GI50 with PC-3 was 24.3 µM (inactive); in the assay on HL-60, 20.7 µM (inactive); with SNB-19, 24.5 µM (inactive); in the assay on SF-268 it was 20.7 µM (inactive); with A549, 30.5 µM (inactive); in the assay on RXF 393 it was 20.8 µM (inactive). For the same compound, the GI50 in the assay with CCRF-CEM is 18.5 µM (inactive); in the assay on NCI-H460, 20.6 µM (inactive); with MDA-MB-231, 14.6 µM (inactive); in the assay on NCI-H522 it was 18.1 µM (inactive); with RPMI-8226, 25.6 µM (inactive); with 786-0 it was 21.8 µM (inactive). In addition, the values for the GI50 in the assay with OVCAR-4 and with MDA-MB-435 were 23.3 µM (inactive) and 20.9 µM (inactive), respectively.

`CN(C)CC1=Nc2cccc3cccc(c23)N1`: the GI50 was 17.2 µM (inactive) in the assay on EKVX; 16.7 µM (inactive) in the assay on SNB-75; 16.4 µM (inactive) with OVCAR-3; 20.3 µM (inactive) in the assay with NCI-H226; 16.7 µM (inactive) in the assay with K562; 17.6 µM (inactive) in the assay on BT-549. The GI50 is 17 µM (inactive) with PC-3; 13.2 µM (inactive) in the assay with HL-60; > 100 µM (inactive) in the assay on SNB-19; 18.9 µM (inactive) in the assay on SF-268; 67.8 µM (inactive) in the assay with A549; 17.9 µM (inactive) with RXF 393. In addition, the GI50 with CCRF-CEM is 0.235 µM (active); with NCI-H460, 34.3 µM (inactive); in the assay on MDA-MB-231, 17.8 µM (inactive); in the assay with NCI-H522, 1.89 µM (inactive); in the assay on RPMI-8226 it was 3.3 µM (inactive); in the assay with 786-0 it was 12.4 µM (inactive). Besides, the values for the GI50 with OVCAR-4 and in the assay on MDA-MB-435 were 13.3 µM (inactive) and 20.2 µM (inactive), respectively.
